These results are taken from patent EP1232756A1, “DRUGS, DRINKS OR FOODS” (Takara Shuzo Co, Ltd., priority 1999, dated 2001).

In assay [1] the test system is human breast cancer-derived MCF-7 cells. Nature of the assay: E-SCREEN assay, proliferation of cultured cells, MTT method (Example 8). Format: cell-based. Here is the method: A test for proliferation of cultured cells was carried out according to a method called the E-SCREEN assay as described in Ana M. Soto et al. (Environ. Health Perspect. 103:113-122(1995)). Briefly, 4.0 x 10^3 of human breast cancer-derived MCF-7 cells in a volume of 100 µL were seeded into each well of a 96-well plate. The plate was incubated overnight. BisA or a combination of BisA and n-octyl gallate was then added thereto. A well without the addition was used as a control. The cells were further cultured for 4 days in a medium, Dulbecco's modified Eagle medium without Phenol Red supplemented with 5% FCS treated with activated carbon-dextran. The MTT method was used to measured the cell numbers.
(In general: Tetrazolium assays rely on reduction of a dye to a coloured formazan, in cell work by metabolically active cells.)

The target of assay [2] is T1, ER(α) (estrogen receptor α) (Homo sapiens, UniProt P03372).
T1 construct: purchased PanVera V2577
T1 sequence (P03372 1-595): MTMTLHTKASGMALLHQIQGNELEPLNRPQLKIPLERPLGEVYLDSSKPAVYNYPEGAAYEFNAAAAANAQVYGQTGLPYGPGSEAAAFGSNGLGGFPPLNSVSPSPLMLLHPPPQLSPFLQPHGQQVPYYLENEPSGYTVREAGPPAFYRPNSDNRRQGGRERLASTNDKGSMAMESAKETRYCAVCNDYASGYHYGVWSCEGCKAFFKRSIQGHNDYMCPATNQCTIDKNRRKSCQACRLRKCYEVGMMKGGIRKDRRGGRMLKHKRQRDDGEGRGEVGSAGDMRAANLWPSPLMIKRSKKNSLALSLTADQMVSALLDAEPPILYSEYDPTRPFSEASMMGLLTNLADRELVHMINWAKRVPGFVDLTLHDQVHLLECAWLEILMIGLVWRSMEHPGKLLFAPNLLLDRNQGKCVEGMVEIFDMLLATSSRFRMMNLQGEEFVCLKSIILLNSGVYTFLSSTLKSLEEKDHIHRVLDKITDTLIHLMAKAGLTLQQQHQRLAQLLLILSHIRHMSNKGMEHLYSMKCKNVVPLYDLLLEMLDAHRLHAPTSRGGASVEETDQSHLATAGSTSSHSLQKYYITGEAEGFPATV
Nature of the assay: Binding to estrogen receptor, fluorescence polarization competition (FP Screen-for-Competitors kit, ER-α) (Example 7). As to conditions: concentration inhibiting 50% of the binding of the ES1-ER(α) complex by competing with ES1; 1 hour at room temperature. Here is the method:
Bindings of various gallic acid derivatives to estrogen receptor were tested using FP Screen-for-Competitors kit, ER-α, high sensitivity kit (V2577: PanVera). The tests were carried out basically according to the procedure as described in the manual attached to the kit. One of various gallic acid derivatives (n-octyl gallate (gallic acid n-octyl ester), n-dodecyl gallate (gallic acid n-dodecyl ester) and n-cetyl gallate (gallic acid n-hexadecyl ester)) was dissolved in DMSO and serially diluted to prepare diluted samples (0.5 M - 0.0000000005 M). 49 µL of Screening buffer attached to the kit was added to 1 µL of one of the diluted samples and stirred thoroughly. 50 µL of 10 nM-15 nM:ES1-ER(α) complex (a complex of ES1 (a fluorescent ligand that binds to ER) and ER(α) (estrogen receptor α)) attached to the kit was added thereto, resulting in the total volume of 100 µL. After allowing to stand for 1 hour at room temperature, fluorescence polarization was measured at an excitation wavelength of 360 nm and an emission wavelength of 535 nm using Full-Range BEACON 2000 (PanVera).
On the technique in general: Fluorescence polarisation rises when a labelled molecule tumbles more slowly, as on binding a larger partner.

Assay [3] deals with female SD rat. The assay can be described thus: Anti-estrogenic activity of n-octyl gallate against NP, rat uterine weight (Example 10). Format: in vivo. As to conditions: for Uterine weight: 1.5 hours before NP, 3 days; for Ratio: vs control (100%). Here is the method: (§1) A 16-days old female SD rat (Japan SLC) was purchased together with its mother, weaned at 19 days of age, and subjected to experiments from the next day. n-Octyl gallate (Tokyo Kasei Kogyo) was dissolved in a small volume of ethanol. Peanut oil was added thereto to result in a final ethanol concentration of 5%. The resulting mixture was orally administered to the 20-days old female SD rat for three successive days. The uterine removed on the day after the last administration day was weighed. Peanut oil containing 5% ethanol was used for a vehicle administration group. NP weighed such that it would be administered at 50 mg/kg was diluted by adding peanut oil. It was orally administered 1.5 hours after the administration of n-octyl gallate.

The test system of assay [4] is female SD rat. The assay can be described thus: Anti-estrogenic activity of n-octyl gallate against BisA, rat uterine weight (Example 9). The class given is in vivo. As to conditions: for Uterine weight: 1.5 hours before BisA, 3 days; for Ratio: vs control (100%). Here is the method: as §1, with “BisA” for “NP weighed such that it would be administered at 50 mg/kg”, “dissolved in a small volume of ethanol. Peanut oil was added thereto to result in a final ethanol concentration of 5%.” for “diluted by adding peanut oil.”

Assay [5] has as its system female SD rat. The assay can be described thus: Anti-estrogenic activity of n-octyl gallate or n-cetyl gallate against subcutaneously administered BisA, rat uterine weight (Example 11). The class given is in vivo. As to conditions: for Uterine weight: 3 days; for Ratio: vs control (100%). Here is the method: A 17-days old female SD rat (Japan SLC) was purchased together with its mother, weaned at 20 days of age, and subjected to experiments from the next day. n-Octyl gallate or n-cetyl gallate (both from Tokyo Kasei Kogyo) was dissolved in a small volume of ethanol. Peanut oil was added thereto to result in a final ethanol concentration of 5%. The resulting mixture was orally administered to the 21-days old female SD rat for three successive days. The uterine removed on the day after the last administration day was weighed. Peanut oil containing 5% ethanol was used for a vehicle administration group. BisA was dissolved in a small volume of ethanol. Peanut oil was added thereto to result in a final ethanol concentration of 5%. The mixture was subcutaneously administered.

Setting [6] is: NP 50 mg/kg oral + n-octyl gallate 25 mg/kg oral.
Setting [7] is: NP 50 mg/kg oral + n-octyl gallate 126 mg/kg oral.
[8] abbreviates: BisA 40 mg/kg oral + n-octyl gallate 25 mg/kg oral.
[9] abbreviates: BisA 40 mg/kg oral + n-octyl gallate 126 mg/kg oral.
Where [10] appears, read: BisA 40 mg/kg subcutaneous + n-octyl gallate 5 mg/kg oral.
Where [11] appears, read: BisA 40 mg/kg subcutaneous + n-octyl gallate 25 mg/kg oral.

Take `CCCCCCCCOC(=O)c1cc(O)c(O)c(O)c1` [n-octyl gallate, gallic acid n-octyl ester]: the “Relative rate of increase in cell number” value in assay [1] (BisA + n-octyl gallate, MCF-7, 4 days culture, control = 100) came out at 91%. Further, the “suppression of the proliferation of the cells (in words)” value in assay [1] (BisA and n-octyl gallate added, MCF-7) was “suppressed to a degree almost the same as that of the control”. In addition, the IC50 – broadly, the point on the concentration scale where inhibition reaches its midpoint – in assay [2] was 3.38 µM. Besides, the Uterine weight in the assay on female SD rat [3] (setting [6]) was 40.4 ± 3.6 mg; in the assay with female SD rat [3] (setting [7]), 38.6 ± 2.4 mg; in the assay with female SD rat [4] (setting [8]), 32.7 ± 3.5 mg; in the assay on female SD rat [4] (setting [9]), 32.9 ± 3.6 mg; in the assay with female SD rat [5] (setting [10]) it was 48.3 ± 1.5 mg; in the assay on female SD rat [5] (setting [11]), 42.1 ± 1.9 mg. Further, the Ratio with female SD rat [3] (setting [6]) is recorded as 122%; in the assay with female SD rat [3] (setting [7]) it was 117%; with female SD rat [4] (setting [8]), 108%; in the assay with female SD rat [4] (setting [9]), 108%; in the assay on female SD rat [5] (setting [10]), 117%; with female SD rat [5] (setting [11]), 102%.
